Assay results as given in paper PMC13065040 (PLOS One, 2026).
Values joined by “and” are separate entries in the source; they are usually repeats but may differ in a detail not shown here. Equal entries are not always repeated. Where a SMILES comes first, the peptide text is derived from it. Bridges are numbered along the chain shown (N, C = ends).

Key:
MMP-2 [1] = target: T1, MMP-2 (Homo sapiens, UniProt P08253); assay: MMP-2 inhibition assay (Enzo kit, OmniMMP RED fluorogenic substrate); format: biochemical
T1 construct: purchased Enzo Life Sciences (MMP-2 drug discovery kit)
Method: The MMP-2 inhibition assay was performed using the Enzo Life Sciences MMP-2 drug discovery kit. and the quenched fluorogenic substrate OmniMMP RED. Reference substrate was diluted to a final concentration of 5 μM, while the MMP-2 enzyme was diluted to 58 mU/µL, and the N-Isobutyl-N-(4-methoxyphenylsulfonyl)glycyl hydroxamic acid (NNGH) inhibitor was diluted to a concentration of 1/200 in assay buffer. […] The assay was performed using a black 96-well microplate. Fluorescence was measured at excitation/emission wavelengths of 545/576 nm, with a cutoff at 570 nm using Gen5 microplate reader (BioTeK, Shoreline, WA). Baseline fluorescence was recorded before adding NNGH inhibitor which was used as a positive control for MMP-2 inhibition. Reaction mixtures in the plate were incubated at 37 °C for 10 min, and fluorescence was measured at 10 min intervals for the first 30 min, then at 30 min intervals until 2 h had elapsed. […] Statistical analysis was performed using ANOVA with GraphPad Prism software, version 10.0.3.

MMP-2 [2] = target: T2, MMP-2 (Homo sapiens, UniProt P08253); assay: Differential scanning fluorimetry (DSF); format: binding; parameters: Dtm (ΔTm): unit not given here; conditions: for Dtm (ΔTm), average: average of replicates
T2 construct: ProSpec Bio; Antibodies-Online; Elabscience; Abcam ENZ-769; ABIN7400042; PKSH033450
T2 sequence (P08253 110-660): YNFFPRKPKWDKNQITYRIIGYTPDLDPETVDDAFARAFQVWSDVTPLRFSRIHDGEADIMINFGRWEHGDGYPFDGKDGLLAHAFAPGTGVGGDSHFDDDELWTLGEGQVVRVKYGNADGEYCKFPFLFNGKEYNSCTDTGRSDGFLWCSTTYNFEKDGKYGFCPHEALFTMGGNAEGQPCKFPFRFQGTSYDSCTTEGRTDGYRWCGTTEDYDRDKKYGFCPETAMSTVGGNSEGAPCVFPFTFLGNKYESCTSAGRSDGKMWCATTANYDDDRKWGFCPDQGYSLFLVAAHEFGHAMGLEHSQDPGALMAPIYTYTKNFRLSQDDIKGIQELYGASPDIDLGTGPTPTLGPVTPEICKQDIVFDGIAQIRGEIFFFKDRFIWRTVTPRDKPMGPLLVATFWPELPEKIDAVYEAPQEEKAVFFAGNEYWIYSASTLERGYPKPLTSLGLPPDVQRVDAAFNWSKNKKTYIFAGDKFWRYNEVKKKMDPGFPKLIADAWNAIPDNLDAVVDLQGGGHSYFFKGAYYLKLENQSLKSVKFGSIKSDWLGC
Method: The melting temperatures (Tm) of recombinant MMP-2 and its complexes with peptides were ascertained using BioRad CFX384 Touch real-time PCR (Hercules, CA, USA). The experiments were performed as previously described. The unfolding of the protein was detected using the fluorescent SYPRO-orange dye (Invitrogen, Carlsbad, CA, USA). MMP-2 and prospective ligand peptides were dissolved in 7.1 pH phosphate buffered saline (154 mM NaCl, 5.6 mM Na2PO4, 1.1 mM KH2PO4), and the reaction mixture was made to a final concentration of 1 µM of protein, either 30 µM ([…]) of peptide, and 1000x dilution of the SYPRO-Orange dye stock from the manufacturer. Excitation and emission filters of the dye were set at 450 − 490 nm and 560 − 580 nm, respectively. The temperature for the reaction was held at 25 °C for 5 min, and then a gradient of 25 °C to 95 °C was applied at a rate of 0.3 °C/min, and the fluorescence was recorded. To determine Tm of the protein, the first derivatives of melting curves were plotted using GraphPad Prism software, version 10.0.3.

Neuropilin-1 (NRP-1) = target: T3, Neuropilin-1 (NRP-1) (Homo sapiens, UniProt O14786); assay: Surface plasmon resonance (SPR), immobilized NRP-1; format: binding; conditions: NTA chip, steady-state affinity model, pH 7.4, n = 3, 4 replicates, read-out: dissociation constant (KD) for NRP-1
T3 construct: containing amino acid residues Phe22-Lys644, with a poly-histidine tag at the C-terminus; purchased ACROBiosystems NR1-H5228
T3 sequence (O14786 22-644 isoform O14786-2): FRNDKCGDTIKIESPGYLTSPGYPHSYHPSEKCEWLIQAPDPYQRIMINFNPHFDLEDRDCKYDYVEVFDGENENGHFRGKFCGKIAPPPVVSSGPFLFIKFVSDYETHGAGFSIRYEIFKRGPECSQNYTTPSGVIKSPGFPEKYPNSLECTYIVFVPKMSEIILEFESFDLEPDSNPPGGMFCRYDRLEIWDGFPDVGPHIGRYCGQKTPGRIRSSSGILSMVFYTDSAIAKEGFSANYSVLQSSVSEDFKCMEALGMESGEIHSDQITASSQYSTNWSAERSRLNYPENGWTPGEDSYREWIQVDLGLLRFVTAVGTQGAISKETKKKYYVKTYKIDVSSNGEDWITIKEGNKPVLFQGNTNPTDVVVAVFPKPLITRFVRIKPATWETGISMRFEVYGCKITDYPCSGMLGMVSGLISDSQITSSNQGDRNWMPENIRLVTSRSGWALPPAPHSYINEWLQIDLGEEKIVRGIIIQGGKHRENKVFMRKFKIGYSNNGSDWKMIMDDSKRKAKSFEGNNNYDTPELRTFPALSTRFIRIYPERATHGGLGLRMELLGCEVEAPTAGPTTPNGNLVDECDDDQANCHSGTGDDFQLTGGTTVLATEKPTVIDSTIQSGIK
Method: Surface plasmon resonance (SPR) reagents, plates, and the NTA chip were purchased from GE Healthcare Life Sciences, now Cytiva (Marlborough, MA, USA). Measurements were performed using the Biacore 8000 SPR System (Marlborough, MA. USA). The running buffer used for protein immobilization and peptide binding consisted of 20 mM Tris, 150 mM NaCl, […] and 0.0005% Tween-20, adjusted to pH 7.4. MMP-2 and NRP-1 were immobilized onto the NTA chip at 15 nM and 25 nM concentration, respectively. Peptides were injected over the immobilized proteins using two-fold serial dilutions from 500 µM to 3.90 µM. Three experiments with four replicates of each were performed. The SPR response curves generated from the Biacore Insight Evaluation Software were fitted to a steady-state affinity model to obtain an equilibrium dissociation constant (KD) for each peptide — protein interaction.

[3] = peptide 30, P75/P76 experiment 1, replicate 1
[4] = peptide 30, P75/P76 experiment 1, replicate 2
[5] = peptide 30, P75/P76 experiment 1, replicate 3
[6] = peptide 30, P75/P76 experiment 2, replicate 1
[7] = peptide 30, P75/P76 experiment 2, replicate 2
[8] = peptide 30, P75/P76 experiment 2, replicate 3
[9] = peptide 30, P75/P76 experiment 3, replicate 1
[10] = peptide 30, P75/P76 experiment 3, replicate 2
[11] = peptide 30, P75/P76 experiment 3, replicate 3
[12] = peptide 50, P75/P76 experiment 1, replicate 2
[13] = peptide 50, P75/P76 experiment 1, replicate 3
[14] = peptide 50, P75/P76 experiment 2, replicate 1
[15] = peptide 50, P75/P76 experiment 2, replicate 2
[16] = peptide 50, P75/P76 experiment 2, replicate 3
[17] = peptide 50, P75/P76 experiment 3, replicate 1
[18] = peptide 50, P75/P76 experiment 3, replicate 2
[19] = peptide 50, P75/P76 experiment 3, replicate 3

COc1ccc(S(=O)(=O)N(CC(=O)NO)CC(C)C)cc1 [NNGH, N-Isobutyl-N-(4-methoxyphenylsulfonyl)glycyl hydroxamic acid]
MMP-2 enzymatic activity, percent of control (MMP-2 [1]): 11.2096 and 16.193

CC(=O)NCC(=O)N[C@@H](CCCNC(=N)N)C(=O)NCC(=O)N[C@@H](CCCCN)C(=O)N[C@H]1CSSC[C@@H](C(=O)N[C@@H](CC(C)C)C(=O)N[C@@H](CO)C(=O)N[C@@H](CCCNC(=N)N)C(N)=O)NC(=O)[C@H](CCC(N)=O)NC(=O)[C@@H]2CCCN2C(=O)CNC(=O)[C@H](Cc2ccc(O)cc2)NC1=O [P75, Ac-[Ser^35,Cyc(28,33)]Ctx(24–36)-NH2] (Ac-GRGKCYGPQCLSR-NH2; disulfide 5-10)
Dtm (ΔTm) (MMP-2 [2]; [3]): 1.067
Dtm (ΔTm) (MMP-2 [2]; [4]): 1.067
Dtm (ΔTm) (MMP-2 [2]; [5]): 1.367
Dtm (ΔTm) (MMP-2 [2]; [6]): 0.6
Dtm (ΔTm) (MMP-2 [2]; [7]): 0.6
Dtm (ΔTm) (MMP-2 [2]; [8]): 0.6
Dtm (ΔTm) (MMP-2 [2]; [9]): 0.2
Dtm (ΔTm) (MMP-2 [2]; [10]): -0.4
Dtm (ΔTm) (MMP-2 [2]; [11]): -0.1
Dtm (ΔTm), average (MMP-2 [2]; peptide 50 (µM per method)): 0.7556
Kd (Neuropilin-1 (NRP-1)): 330 ± 146 µM

CC(=O)N[C@@H](CCCCN)C(=O)N[C@H]1CSSC[C@@H](C(=O)N[C@@H](CC(C)C)C(N)=O)NC(=O)[C@H](CCC(N)=O)NC(=O)[C@@H]2CCCN2C(=O)CNC(=O)[C@H](Cc2ccc(O)cc2)NC1=O [P78, Ac-[Cyc(28,33)]Ctx(27–34)-NH2] (Ac-KCYGPQCL-NH2; disulfide 2-7)
Kd (Neuropilin-1 (NRP-1)): 267 ± 103 µM

Ac-[Cys^26,Ser^28,33,Cyc(26,35)]Ctx(24–36)-NH2 [P76]
ΔTm ± SD, change in melting temperature of MMP-2 (MMP-2 [2]; 1 µM MMP-2, 30 µM (Ctx) or 50 µM (P75 and P76) peptide, PBS pH 7.1, SYPRO-Orange, average and SD of n ≥ 3, SD): 0.63 ± 0.36 °C
Dtm (ΔTm), average (MMP-2 [2]; peptide 30 (µM per method)): 0.6556
Dtm (ΔTm) (MMP-2 [2]; [3]): -0.7333
Tm of MMP-2 with peptide (MMP-2 [2]; [3]): 45.7 °C
Dtm (ΔTm) (MMP-2 [2]; [4]): -0.4333
Tm of MMP-2 with peptide (MMP-2 [2]; [4]): 46 °C
Dtm (ΔTm) (MMP-2 [2]; [5]): 0.1667
Tm of MMP-2 with peptide (MMP-2 [2]; [5]): 46.6 °C
Dtm (ΔTm) (MMP-2 [2]; [6]): 1.8
Tm of MMP-2 with peptide (MMP-2 [2]; [6]): 48.7 °C
Dtm (ΔTm) (MMP-2 [2]; [7]): 1.5
Tm of MMP-2 with peptide (MMP-2 [2]; [7]): 48.4 °C
Dtm (ΔTm) (MMP-2 [2]; [8]): 1.8
Tm of MMP-2 with peptide (MMP-2 [2]; [8]): 48.7 °C
Dtm (ΔTm) (MMP-2 [2]; [9]): 0.5
Tm of MMP-2 with peptide (MMP-2 [2]; [9]): 47.8 °C
Dtm (ΔTm) (MMP-2 [2]; [10]): 0.5
Tm of MMP-2 with peptide (MMP-2 [2]; [10]): 47.8 °C
Dtm (ΔTm) (MMP-2 [2]; [11]): 0.8
Tm of MMP-2 with peptide (MMP-2 [2]; [11]): 48.1 °C
Dtm (ΔTm), average (MMP-2 [2]; peptide 50 (µM per method)): 0.6222
Tm of MMP-2 with peptide (MMP-2 [2]; peptide 50, P75/P76 experiment 1, replicate 1): 47.8 °C
Dtm (ΔTm) (MMP-2 [2]; [12]): 0.6
Tm of MMP-2 with peptide (MMP-2 [2]; [12]): 47.8 °C
Dtm (ΔTm) (MMP-2 [2]; [13]): 0.6
Tm of MMP-2 with peptide (MMP-2 [2]; [13]): 47.8 °C
Dtm (ΔTm) (MMP-2 [2]; [14]): 0.5
Tm of MMP-2 with peptide (MMP-2 [2]; [14]): 47.4 °C
Dtm (ΔTm) (MMP-2 [2]; [15]): 1.2
Tm of MMP-2 with peptide (MMP-2 [2]; [15]): 48.1 °C
Dtm (ΔTm) (MMP-2 [2]; [16]): 1.2
Tm of MMP-2 with peptide (MMP-2 [2]; [16]): 48.1 °C
Dtm (ΔTm) (MMP-2 [2]; [17]): 0.2
Tm of MMP-2 with peptide (MMP-2 [2]; [17]): 47.5 °C
Dtm (ΔTm) (MMP-2 [2]; [18]): 0.5
Tm of MMP-2 with peptide (MMP-2 [2]; [18]): 47.8 °C
Dtm (ΔTm) (MMP-2 [2]; [19]): 0.2
Tm of MMP-2 with peptide (MMP-2 [2]; [19]): 47.5 °C
inhibition of MMP-2 enzymatic activity (Fig 10B) (MMP-2 [1]; peptides at 1 µM, 50 µM and 100 µM, one-way ANOVA vs control): not statistically significant
